The compounds below were run on Aryl hydrocarbon receptor (Cavia porcellus) (assay: Activation of AhR expressed in guinea pig cytosolic fractions over expressed with XRE by ELISA based Ah-immunoassay relative to TCDD).

Structure (SMILES) | Activity
COc1ccc2nc3[se]c4[nH]c5ccc(OC)cc5c4cc-3c2c1 | 0.009
COc1ccc2nc3[se]c4[nH]c5ccc(OC)cc5c4c(C)c-3c2c1 | 0.013
C1=Cc2sc3ccccc3c2[Se]c2c1sc1ccccc21 | 0.018
Cc1c2c3ccccc3nc-2[se]c2[nH]c3ccccc3c12 | 0.38
c1ccc2c3cc4c([nH]c5ccccc54)[se]c-3nc2c1 | 0.32

The remaining lines, values ahead:

Activity | Structure (SMILES)
0.055 | C1=Cc2sc3ccccc3c2Sc2c1sc1ccccc21
0.36 | Cc1c2c3ccccc3nc-2sc2[nH]c3ccccc3c12
0.132 | c1ccc2c3cc4[nH]c5ccccc5c4sc-3nc2c1
0.29 | c1ccc2c3cc4c([nH]c5ccccc54)sc-3nc2c1
0.039 | O=c1c2c([nH]c3ccccc32)sc2[nH]c3ccccc3c12
1.48 | c1ccc2c(c1)[nH]c1cc3c(cc12)[nH]c1ccccc13
0.0033 | CC1(C)c2c([nH]c3ccccc23)Sc2[nH]c3ccccc3c21

— ChEMBL document CHEMBL1152737, “Synthesis and biological evaluation of fused thio- and selenopyrans as new indolocarbazole analogues with aryl hydrocarbon receptor affinity” (Bioorg Med Chem, 2009)
